Key:
PI3Kα (wild-type) = target: T1, PI3Kα (wild-type) (Homo sapiens, UniProt P42336); assay: PI3 Kinase TR-FRET assay, PI3Kα (wild-type); assay type: biochemical; details: wild-type P110/P85α, 10 μM ATP
T1 construct: made in house; host or cells: SF9 insect cells
Procedure: The ability of compounds of the invention to inhibit PI3K activity was determined in a homogeneous TR-FRET assay using a PI3K assay kit (Millipore, USA; cat #33-016) according to manufacturer's instructions. PI3-Kinases (isoforms α, β, γ and δ) catalyze the phosphorylation of phosphatidylinositol, PIP2 to PIP3 in the presence of ATP and Mg^2+. The PIP3 product is detected by displacement of biotin-PIP3 from an energy transfer complex consisting of Europium labeled anti-GST monoclonal antibody, a GST-tagged PH domain, biotinylated PIP3 and Streptavidin-APC. Excitation of Europium in the complex results in an energy transfer to the APC and a fluorescence emission at 665 nm. The PIP3 product displaces biotin-PIP3 from the complex resulting in a loss of energy transfer and thus a decrease in signal.
To test for the ability of compounds to inhibit the activity of PI3Kα (wild-type), exemplary compounds of formula (I) were dissolved in DMSO and directly distributed into 384-well plates at a volume of 0.5 μL. 14.5 μL of P110/P85α/PIP2 mixture in buffer (obtained from the Millipore kit) containing MgCl2 (40 mM) and DTT (5 mM) was added to compound wells and incubated for 60 minutes at room temperature. P110/P85α was expressed in SF9 insect cells and purified nickel column extraction. Five ng of wild-type P110/P85α was used in the assay. The kinase reaction was started by the addition of ATP. The assay concentrations of both PIP2 and ATP were 10 μM. The reaction mixture was incubated for 30 minutes at room temperature and was terminated by the addition of stop mix and detection mix. Fluorescence was measured at 615 and 665 nm upon excitation at 340 nm in a Victor™ V5 fluorometer (Perkin Elmer, USA). The fluorescence emission ratio at 665 to 615 nm, proportional to the kinase activity, was plotted against the compound concentration to generate dose-response curves and IC50 values were determined using GraphPad Prism® 5 software.

mTOR kinase = target: T2, mTOR kinase (Homo sapiens, UniProt P42345); assay: mTOR kinase TR-FRET assay; assay type: biochemical; details: 20 μM ATP
T2 construct: purchased Millipore, USA
T2 sequence (P42345 1362-2549 limits assumed): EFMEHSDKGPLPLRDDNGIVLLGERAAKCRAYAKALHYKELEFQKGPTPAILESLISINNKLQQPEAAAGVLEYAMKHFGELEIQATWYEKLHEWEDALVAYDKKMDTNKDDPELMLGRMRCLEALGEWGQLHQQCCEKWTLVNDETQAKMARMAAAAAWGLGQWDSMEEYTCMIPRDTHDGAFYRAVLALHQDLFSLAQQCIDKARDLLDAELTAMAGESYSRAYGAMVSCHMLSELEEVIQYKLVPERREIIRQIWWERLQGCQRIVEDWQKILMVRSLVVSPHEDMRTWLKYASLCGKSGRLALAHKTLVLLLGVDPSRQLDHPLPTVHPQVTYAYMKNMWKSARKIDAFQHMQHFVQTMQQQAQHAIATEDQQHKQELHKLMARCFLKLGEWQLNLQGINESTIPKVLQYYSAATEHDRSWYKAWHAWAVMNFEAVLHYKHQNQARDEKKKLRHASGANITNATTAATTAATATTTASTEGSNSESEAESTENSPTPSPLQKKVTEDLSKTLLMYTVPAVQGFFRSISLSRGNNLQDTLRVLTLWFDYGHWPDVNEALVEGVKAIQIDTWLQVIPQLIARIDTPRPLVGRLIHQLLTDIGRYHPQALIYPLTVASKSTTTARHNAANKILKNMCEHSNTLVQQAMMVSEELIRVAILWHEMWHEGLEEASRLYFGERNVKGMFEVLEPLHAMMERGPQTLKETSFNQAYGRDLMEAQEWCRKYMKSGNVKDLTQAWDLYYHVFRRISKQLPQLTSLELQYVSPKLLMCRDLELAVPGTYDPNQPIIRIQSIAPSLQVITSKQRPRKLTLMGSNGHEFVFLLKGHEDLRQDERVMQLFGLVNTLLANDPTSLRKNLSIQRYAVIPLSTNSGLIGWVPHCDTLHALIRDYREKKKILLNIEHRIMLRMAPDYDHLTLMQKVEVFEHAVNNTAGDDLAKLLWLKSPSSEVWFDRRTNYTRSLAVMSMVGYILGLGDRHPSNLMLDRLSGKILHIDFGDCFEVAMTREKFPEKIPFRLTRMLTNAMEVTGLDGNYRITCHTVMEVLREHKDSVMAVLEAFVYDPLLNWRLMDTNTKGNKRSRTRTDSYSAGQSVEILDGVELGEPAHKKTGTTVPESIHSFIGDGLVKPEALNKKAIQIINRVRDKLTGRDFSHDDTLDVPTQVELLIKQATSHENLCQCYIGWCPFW
Procedure: Compound inhibition for mTOR kinase was determined in a homogeneous TR-FRET assay using the Lance® ULight-p70 S6K (Thr 389) peptide (obtained from Perkin-Elmer). The ULight™-labeled synthetic peptide contains the amino acid residues surrounding Thr389 of human p70 S6K. The ULight-p70 S6K peptide is phosphorylated at Thr389 by mTOR. Phosphorylation motif: LGFTYVAP as substrate.
The compound dilution was carried out in 100% DMSO followed by a buffer dilution. The reaction buffer was HEPES (50 mM pH 7.5), EGTA (1 mM), MnCl2 (3 mM). Test compounds at various concentrations were pre-incubated with mTOR (Millipore, USA; 5 ng) for 60 min, and then the Lance® ULight-p70 S6K (Thr 389) peptide (50 nM) was added along with ATP (20 μM). After incubating the reaction mixture for 60 minutes at room temperature, the kinase reaction was terminated by the addition of EDTA (10 mM) followed by the addition of detection mix, i.e., 1 nM Eu-labeled anti-phospho-substrate antibody (Perkin Elmer, USA). The fluorescence emission at […] was measured upon excitation at 340 nm. IC50 values were subsequently determined using a sigmoidal dose-response curve (variable slope) in GraphPad Prism® 5 software.
Compounds of formula (I) caused inhibition of mTOR kinase activity as determined by this assay.

T1 sequence (P42336 whole entry, species assumed): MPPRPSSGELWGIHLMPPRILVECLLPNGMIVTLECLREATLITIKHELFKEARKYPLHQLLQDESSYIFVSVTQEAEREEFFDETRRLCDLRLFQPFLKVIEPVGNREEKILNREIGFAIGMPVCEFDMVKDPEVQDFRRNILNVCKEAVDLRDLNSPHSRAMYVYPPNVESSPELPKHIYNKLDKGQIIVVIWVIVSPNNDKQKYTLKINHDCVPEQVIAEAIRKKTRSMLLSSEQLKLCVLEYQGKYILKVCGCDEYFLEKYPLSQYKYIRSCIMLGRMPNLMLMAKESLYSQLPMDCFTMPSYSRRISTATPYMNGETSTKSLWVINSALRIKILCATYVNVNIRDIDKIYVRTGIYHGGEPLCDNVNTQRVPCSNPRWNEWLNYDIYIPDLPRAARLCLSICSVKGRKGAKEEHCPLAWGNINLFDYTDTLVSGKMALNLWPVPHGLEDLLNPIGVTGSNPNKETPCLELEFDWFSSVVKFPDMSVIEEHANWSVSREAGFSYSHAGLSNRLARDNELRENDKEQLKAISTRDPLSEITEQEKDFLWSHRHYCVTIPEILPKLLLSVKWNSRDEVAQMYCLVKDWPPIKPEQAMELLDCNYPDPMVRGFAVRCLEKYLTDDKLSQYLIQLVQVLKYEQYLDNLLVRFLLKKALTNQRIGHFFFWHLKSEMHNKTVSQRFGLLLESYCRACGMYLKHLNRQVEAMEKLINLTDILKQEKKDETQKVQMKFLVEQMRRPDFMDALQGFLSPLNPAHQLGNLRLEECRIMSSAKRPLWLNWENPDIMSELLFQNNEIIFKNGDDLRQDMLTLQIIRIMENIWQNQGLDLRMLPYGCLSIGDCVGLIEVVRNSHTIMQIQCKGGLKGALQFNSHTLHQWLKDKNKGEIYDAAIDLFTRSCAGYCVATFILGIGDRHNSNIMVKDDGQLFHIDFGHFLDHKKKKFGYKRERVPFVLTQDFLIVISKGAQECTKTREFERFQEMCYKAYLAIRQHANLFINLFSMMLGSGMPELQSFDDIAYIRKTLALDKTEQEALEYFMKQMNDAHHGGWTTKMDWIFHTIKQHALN
T1 sequence (P27986 whole entry partner, species assumed): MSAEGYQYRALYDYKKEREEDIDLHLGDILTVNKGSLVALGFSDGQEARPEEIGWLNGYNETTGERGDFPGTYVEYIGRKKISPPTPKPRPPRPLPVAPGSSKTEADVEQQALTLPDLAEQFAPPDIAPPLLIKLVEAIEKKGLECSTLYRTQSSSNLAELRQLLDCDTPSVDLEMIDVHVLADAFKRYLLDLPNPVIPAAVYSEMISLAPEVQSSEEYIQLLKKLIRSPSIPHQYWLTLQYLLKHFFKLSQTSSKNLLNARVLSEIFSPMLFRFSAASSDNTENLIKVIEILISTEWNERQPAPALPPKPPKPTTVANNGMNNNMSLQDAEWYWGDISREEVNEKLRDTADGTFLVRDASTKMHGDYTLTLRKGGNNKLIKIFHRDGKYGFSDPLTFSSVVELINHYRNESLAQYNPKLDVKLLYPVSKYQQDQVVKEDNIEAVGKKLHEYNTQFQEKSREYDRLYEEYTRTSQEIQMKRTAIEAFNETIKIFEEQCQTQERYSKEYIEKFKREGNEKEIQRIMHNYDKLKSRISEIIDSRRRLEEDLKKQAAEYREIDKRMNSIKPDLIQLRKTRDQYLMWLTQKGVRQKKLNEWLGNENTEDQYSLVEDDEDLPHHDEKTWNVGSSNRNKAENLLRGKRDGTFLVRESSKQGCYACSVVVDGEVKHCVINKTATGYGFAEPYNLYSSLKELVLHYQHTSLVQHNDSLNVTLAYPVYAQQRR

Structure (SMILES) | IC50 (PI3Kα (wild-type)) [nM] | IC50 (mTOR kinase) [nM]
CN(C)C(=O)c1cccc(-c2cnc3c(N4CCOCC4)nc(-c4cnc(N)nc4)nc3c2)c1 [Example 41, 3-(2-(2-aminopyrimidin-5-yl)-4-morpholinopyrido[3,2-d]pyrimidin-7-yl)-N,N-dimethylbenzamide] | < 50 | 50 to 200
Nc1ncc(-c2nc(N3CCOCC3)c3ncc(-c4ccc(NC(=O)C5CCC5)cc4)cc3n2)cn1 [Example 78, N-(4-(2-(2-amino-pyrimidin-5-yl)-4-morpholinopyrido[3,2-d]pyrimidin-7-yl)-phenyl)cyclobutane-carboxamide] | < 50 | –
CS(=O)(=O)N1CCN(C(=O)c2cccc(-c3cnc4c(N5CCOCC5)nc(-c5cnc(N)nc5)nc4c3)c2)CC1 [Example 36, (3-(2-(2-aminopyrimidin-5-yl)-4-morpholino-pyrido[3,2-d]pyrimidin-7-yl)phenyl)(4-(methyl-sulfonyl)piperazin-1-yl)-methanone] | < 50 | –
Nc1ncc(-c2nc(N3CCOCC3)c3ncc(-c4cccc(NC(=O)c5csnn5)c4)cc3n2)cn1 [Example 69, N-(3-(2-(2-amino-pyrimidin-5-yl)-4-morpholinopyrido[3,2-d]pyrimidin-7-yl)phenyl)-1,2,3-thiadiazole-4-carboxamide] | < 50 | –
Nc1ncc(-c2nc(N3CCOCC3)c3ncc(-c4cc(NC(=O)c5cccnc5)ccc4F)cc3n2)cn1 [Example 71, N-(3-(2-(2-amino-pyrimidin-5-yl)-4-morpholinopyrido[3,2-d]-pyrimidin-7-yl)-4-fluoro-phenyl)nicotinamide] | < 50 | < 50
C[C@H](O)C(=O)Nc1cccc(-c2ccc3c(N4CCOCC4)nc(-c4cnc(N)nc4)nc3c2)c1 [Example 44] | 50 to 200 | 201 to 10000
CS(=O)(=O)Nc1cncc(-c2cnc3c(N4CCOCC4)nc(-c4cnc(N)nc4)nc3c2)c1 [Example 96, N-(5-(2-(2-amino-pyrimidin-5-yl)-4-morpholinopyrido[3,2-d]-pyrimidin-7-yl)pyridin-3-yl)methanesulfonamide] | < 50 | < 50
CC(O)C(=O)Nc1cccc(-c2ccc3c(N4CCOCC4)nc(-c4cnc(N)nc4)nc3c2)c1 (stereo not shown) [Example 43, N-(3-(2-(2-amino-pyrimidin-5-yl)-4-morpholinoquinazolin-7-yl)phenyl)-2-hydroxy-propanamide] | 201 to 10000 | < 50
Nc1ncc(-c2nc(N3CCOCC3)c3ncc(-c4ccc(NC(=O)c5ccco5)cc4)cc3n2)cn1 [Example 79, N-(4-(2-(2-amino-pyrimidin-5-yl)-4-morpholinopyrido[3,2-d]pyrimidin-7-yl)-phenyl)furan-2-carboxamide] | < 50 | –
CN(C)CC(=O)N1CCN(c2cccc(-c3cnc4c(N5CCOCC5)nc(-c5cnc(N)nc5)nc4c3)c2)CC1 [Example 112, 1-(4-(3-(2-(2-amino-pyrimidin-5-yl)-4-morpholinopyrido[3,2-d]pyrimidin-7-yl)-phenyl)piperazin-1-yl)-2-(dimethylamino)ethanone] | < 50 | < 50
CC(=O)N(C)c1cccc(-c2cnc3c(N4CCOCC4)nc(-c4cnc(N)nc4)nc3c2)c1 [Example 27, N-(3-(2-(2-amino-pyrimidin-5-yl)-4-morpholinopyrido[3,2-d]-pyrimidin-7-yl)phenyl)-N-methylacetamide] | 50 to 200 | 50 to 200
Nc1ncc(-c2nc(N3CCOCC3)c3ncc(-c4cccc(NC(=O)C5CCOCC5)c4)cc3n2)cn1 [Example 63, N-(3-(2-(2-amino-pyrimidin-5-yl)-4-morpholinopyrido[3,2-d]pyrimidin-7-yl)-phenyl)tetrahydro-2H-pyran-4-carboxamide] | < 50 | < 50
Nc1ncc(-c2nc(N3CCOCC3)c3ncc(CN4CCNCC4)cc3n2)cn1 [Example 94, 5-(4-morpholino-7-(piperazin-1-yl-methyl)pyrido[3,2-d]-pyrimidin-2-yl)pyrimidin-2-amine] | 50 to 200 | 201 to 10000
CC(C)(O)C(=O)Nc1cccc(-c2ccc3c(N4CCOCC4)nc(-c4cnc(N)nc4)nc3c2)c1 [Example 6, N-(3-(2-(2-Aminopyrimidin-5-yl)-4-morpholinoquinazolin-7-yl)phenyl)-2-hydroxy-2-methylpropanamide] | 50 to 200 | 50 to 200
CC(O)C(=O)N1CCN(Cc2ccc3c(N4CCOCC4)nc(-c4cnc(N)nc4)nc3c2)CC1 (stereo not shown) [Example 90, 1-(4-((2-(2-aminopyrimidin-5-yl)-4-morpholinoquinazolin-7-yl)methyl)piperazin-1-yl)-2-hydroxypropan-1-one] | 201 to 10000 | 201 to 10000
CN(C)CC(=O)Nc1cccc(-c2ccc3c(N4CCOCC4)nc(-c4cnc(N)nc4)nc3c2)c1 [Example 42, N-(3-(2-(2-amino-pyrimidin-5-yl)-4-morpholinoquinazolin-7-yl)phenyl)-2-(dimethylamino)-acetamide] | 201 to 10000 | 50 to 200
CC(C)(C#N)C(=O)N1CCN(c2cccc(-c3cnc4c(N5CCOCC5)nc(-c5cnc(N)nc5)nc4c3)c2)CC1 [Example 107, 3-(4-(3-(2-(2-amino-pyrimidin-5-yl)-4-morpholinopyrido[3,2-d]-pyrimidin-7-yl)-phenyl)piperazin-1-yl)-2,2-dimethyl-3-oxopropanenitrile] | < 50 | –
CC(=O)Nc1cncc(-c2cnc3c(N4CCOCC4)nc(-c4cnc(N)nc4)nc3c2)c1 [Example 30, N-(5-(2-(2-amino-pyrimidin-5-yl)-4-morpholinopyrido[3,2-d]pyrimidin-7-yl)pyridin-3-yl)acetamide] | < 50 | 201 to 10000
Nc1ncc(-c2nc(N3CCOCC3)c3ccc(-c4cccnc4F)cc3n2)cn1 [Example 19, 5-(7-(2-fluoropyridin-3-yl)-4-morpholino-quinazolin-2-yl)-pyrimidin-2-amine] | > 1000 | > 1000
CC(=O)N1CCN(Cc2ccc3c(N4CCOCC4)nc(-c4cnc(N)nc4)nc3c2)CC1 [Example 92, 1-(4-((2-(2-amino-pyrimidin-5-yl)-4-morpholinoquinazolin-7-yl)methyl)piperazin-1-yl)ethanone] | 201 to 10000 | 201 to 10000
Nc1ncc(-c2nc(N3CCOCC3)c3ncc(-c4cccc(NC(=O)c5ccc(F)cc5)c4)cc3n2)cn1 [Example 74, N-(3-(2-(2-amino-pyrimidin-5-yl)-4-morpholinopyrido[3,2-d]pyrimidin-7-yl)phenyl)-4-fluorobenzamide] | < 50 | –
Nc1ncc(-c2nc(N3CCOCC3)c3ccc(-c4cncnc4)cc3n2)cn1 [Example 12, 5-(4-morpholino-7-(pyrimidin-5-yl)quinazolin-2-yl)pyrimidin-2-amine] | 201 to 10000 | 201 to 10000
CC(=O)NC1CCN(Cc2ccc3c(N4CCOCC4)nc(-c4cnc(N)nc4)nc3c2)CC1 [Example 93, N-(1-((2-(2-amino-pyrimidin-5-yl)-4-morpholinoquinazolin-7-yl)methyl)piperidin-4-yl)-acetamide] | 201 to 10000 | 201 to 10000
Cc1ccc(C(=O)Nc2ccc(F)c(-c3cnc4c(N5CCOCC5)nc(-c5cnc(N)nc5)nc4c3)c2)o1 [Example 72, N-(3-(2-(2-amino-pyrimidin-5-yl)-4-morpholinopyrido[3,2-d]pyrimidin-7-yl)-4-fluorophenyl)-5-methylfuran-2-carboxamide] | < 50 | –
Nc1ncc(-c2nc(N3CCOCC3)c3ccc(-c4ccsc4)cc3n2)cn1 [Example 17, 5-(4-morpholino-7-(thiophen-3-yl)-quinazolin-2-yl)-pyrimidin-2-amine] | – | 50 to 200
Cc1ccc(C(=O)Nc2ccc(-c3cnc4c(N5CCOCC5)nc(-c5cnc(N)nc5)nc4c3)cc2)o1 [Example 73, N-(4-(2-(2-amino-pyrimidin-5-yl)-4-morpholinopyrido[3,2-d]pyrimidin-7-yl)phenyl)-5-methylfuran-2-carboxamide] | < 50 | –
